Laboratory results: PMC9500072, “Topical application of an irreversible small molecule inhibitor of lysyl oxidases ameliorates skin scarring and fibrosis” (Nature Communications, 2022)
Where “and” joins values, the source holds several entries; their conditions need not be identical. Equal entries are not always repeated. Entries after “also recorded” stand apart in the source; their conditions may differ.

How the values were obtained:
LOX = test: Substrate (putrescine) competition; assay type: biochemical; parameters: Fig. 2D activity: scale not given here
Source text: PXS-4787 competes with a model substrate (putrescine) for the LOX binding site (Fig. 2d). The allylamine of PXS-4787 interacts with the co-factor of the enzyme and elicits mechanism-based inhibition (Fig. 2e). Through careful optimization, and in contrast to BAPN, PXS-4787 selectivity targets lysyl oxidases and is neither an inhibitor of, nor a substrate for, related oxidases (Fig. 2f, g and Supplementary Table S1). Furthermore, PXS-4787 was clean when profiled in a broad panel of macromolecular targets using enzyme and radioligand binding assays (LeadProfilingScreen, Eurofins CEREP Panlabs, 68 assays, test concentration 10 µM; Supplementary Data S1).
Data are expressed as mean ± SEM. Subsequent statistical analysis was performed with unpaired two-sided Student’s t tests. *p < 0.05, **p < 0.01, ***p < 0.001and ****p < 0.0001. Source data are provided as a Source Data file.
The measurement of the enzymatic activity of all lysyl oxidase family members was based on the detection of hydrogen peroxide with an Amplex-Red oxidation assay, as previously described; miniaturized in 384 well formats, with the appropriate combination of substrate and assay buffer for each individual enzyme. After a 30 min pre-incubation of the enzyme at 37 °C with the test compound (or with different incubation times for the time-dependency assay), one volume of reaction mixture containing 120 μM Amplex Red (AR) (Life Technologies), 1.5 U/mL horseradish peroxidase (HRP) (Sigma-Aldrich) and the specific substrate was added to each sample. The relative fluorescence units (RFU) were then measured every 2.5 min for 30 min at 37 °C, excitation 565 nm and emission 590, on a BMG Clariostar Microplate Reader. All the substrates were used at concentrations corresponding to their Km towards the corresponding enzyme, or with a range of different concentrations for the substrate competition experiments.

[1] = test system: primary human fibroblasts; test: Cell viability MTS assay; assay type: cell-based
Method: Cell proliferation was measured using a standard 3-(4,5-dimethylthiazol-2-yl)-5-(3-carboxymethoxypheny1)-2-(4-sulfophenyl)-2H-tetrazolium, inner salt (MTS) assay (Cell Titer 96® Aqueous One Solution Cell Proliferation Assay, Promega, Australia) as per the manufacturer’s protocol. Briefly, 2500 primary scar fibroblasts below passage eight were seeded in each well of 96-well plates. The cells then exposed to 0, 1, 2.5, 5, 10, 25, 50, and 100 µM concentrations of PXS-4787 in cell culture media (DMEM-Glutamax™ supplemented with 10% Fetal Bovine Serum and 1% Penicillin/ Streptomycin, Life technologies, USA) for 24, 48 and 72 h. MTS solution (20 µL) was added in each well and incubated for 3.5 h in a humidified chamber at 37 °C and 5% CO2. The absorbance recorded on a UV–visible spectrophotometer (Enspire Multimode plate reader, PerkinElmer®) at 490 nanometers.

Thyroid Hormone = test: Eurofins panel 285900; assay type: binding, rat; details: 10 µM
Phosphodiesterase PDE4D2 = Phosphodiesterase PDE4D2 (Homo sapiens, UniProt Q08499); test: Eurofins panel 154420; assay type: biochemical
[2] = molecular target: Protein Tyrosine Kinase, LCK (Homo sapiens, UniProt P06239); test: Eurofins panel 176020; assay type: biochemical
Chain of Protein Tyrosine Kinase, LCK (P06239 whole entry): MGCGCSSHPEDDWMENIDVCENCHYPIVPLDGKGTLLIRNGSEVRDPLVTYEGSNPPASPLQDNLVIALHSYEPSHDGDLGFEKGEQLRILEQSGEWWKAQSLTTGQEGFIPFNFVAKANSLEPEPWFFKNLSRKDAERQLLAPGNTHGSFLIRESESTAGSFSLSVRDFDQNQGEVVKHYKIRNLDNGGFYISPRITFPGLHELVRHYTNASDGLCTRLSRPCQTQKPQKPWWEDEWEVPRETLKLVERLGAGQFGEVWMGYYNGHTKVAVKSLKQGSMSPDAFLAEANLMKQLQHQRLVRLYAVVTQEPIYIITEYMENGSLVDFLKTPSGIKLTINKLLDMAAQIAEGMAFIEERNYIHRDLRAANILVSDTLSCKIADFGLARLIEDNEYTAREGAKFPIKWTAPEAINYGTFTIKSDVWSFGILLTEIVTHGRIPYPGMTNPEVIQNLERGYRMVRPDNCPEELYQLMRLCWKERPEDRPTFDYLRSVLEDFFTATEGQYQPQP

Chain of Phosphodiesterase PDE4D2 (Q08499 303-809 limits assumed): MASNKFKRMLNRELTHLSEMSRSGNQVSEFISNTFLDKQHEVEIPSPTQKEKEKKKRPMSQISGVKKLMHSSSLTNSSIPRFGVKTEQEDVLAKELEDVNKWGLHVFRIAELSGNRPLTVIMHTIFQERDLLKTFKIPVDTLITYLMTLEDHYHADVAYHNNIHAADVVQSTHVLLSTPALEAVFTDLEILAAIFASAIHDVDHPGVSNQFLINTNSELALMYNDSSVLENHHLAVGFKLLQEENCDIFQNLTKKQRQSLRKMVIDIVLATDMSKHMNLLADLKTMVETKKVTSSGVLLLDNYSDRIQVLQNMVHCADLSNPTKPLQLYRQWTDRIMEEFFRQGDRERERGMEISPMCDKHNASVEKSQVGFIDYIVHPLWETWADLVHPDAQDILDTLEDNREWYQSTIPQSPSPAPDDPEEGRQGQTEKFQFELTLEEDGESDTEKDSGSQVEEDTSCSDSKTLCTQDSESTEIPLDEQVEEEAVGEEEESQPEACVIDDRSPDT

NC/C=C(\F)CS(=O)(=O)c1ccccc1 [PXS-4787]
competition with model substrate putrescine for the LOX binding site (LOX): competes
Fig. 2D activity (LOX; 5.65e-10, putrescine 1.1 mM): 89.58
Fig. 2D activity (LOX; 5.65e-10, putrescine 3.3 mM): 93.22
Fig. 2D activity (LOX; 5.65e-10, putrescine 10 mM): 98.29
Fig. 2D activity (LOX; 5.65e-10, putrescine 30 mM): 96.57
Fig. 2D activity (LOX; 5.65e-10, putrescine 90 mM): 93.38
Fig. 2D activity (LOX; 1.69e-9, putrescine 1.1 mM): 84.4
Fig. 2D activity (LOX; 1.69e-9, putrescine 3.3 mM): 94.23
Fig. 2D activity (LOX; 1.69e-9, putrescine 10 mM): 94.63
Fig. 2D activity (LOX; 1.69e-9, putrescine 30 mM): 93.67
Fig. 2D activity (LOX; 1.69e-9, putrescine 90 mM): 92.69
Fig. 2D activity (LOX; 5.08e-9, putrescine 1.1 mM): 89.54
Fig. 2D activity (LOX; 5.08e-9, putrescine 3.3 mM): 93.84
Fig. 2D activity (LOX; 5.08e-9, putrescine 10 mM): 97.41
Fig. 2D activity (LOX; 5.08e-9, putrescine 30 mM): 96.12
Fig. 2D activity (LOX; 5.08e-9, putrescine 90 mM): 91.41
Fig. 2D activity (LOX; 1.52e-8, putrescine 1.1 mM): 91.17
Fig. 2D activity (LOX; 1.52e-8, putrescine 3.3 mM): 95.49
Fig. 2D activity (LOX; 1.52e-8, putrescine 10 mM): 93.57
Fig. 2D activity (LOX; 1.52e-8, putrescine 30 mM): 97.83
Fig. 2D activity (LOX; 1.52e-8, putrescine 90 mM): 92.34
Fig. 2D activity (LOX; 4.57e-8, putrescine 1.1 mM): 81.95
Fig. 2D activity (LOX; 4.57e-8, putrescine 3.3 mM): 93.97
Fig. 2D activity (LOX; 4.57e-8, putrescine 10 mM): 95.69
Fig. 2D activity (LOX; 4.57e-8, putrescine 30 mM): 96.71
Fig. 2D activity (LOX; 4.57e-8, putrescine 90 mM): 93.31
Fig. 2D activity (LOX; 1.37e-7, putrescine 1.1 mM): 73.72
Fig. 2D activity (LOX; 1.37e-7, putrescine 3.3 mM): 89.33
Fig. 2D activity (LOX; 1.37e-7, putrescine 10 mM): 93.77
Fig. 2D activity (LOX; 1.37e-7, putrescine 30 mM): 94.81
Fig. 2D activity (LOX; 1.37e-7, putrescine 90 mM): 93.26
Fig. 2D activity (LOX; 4.12e-7, putrescine 1.1 mM): 60.93
Fig. 2D activity (LOX; 4.12e-7, putrescine 3.3 mM): 75.9
Fig. 2D activity (LOX; 4.12e-7, putrescine 10 mM): 89.23
Fig. 2D activity (LOX; 4.12e-7, putrescine 30 mM): 89.28
Fig. 2D activity (LOX; 4.12e-7, putrescine 90 mM): 90.74
Fig. 2D activity (LOX; 1.23e-6, putrescine 1.1 mM): 32.69
Fig. 2D activity (LOX; 1.23e-6, putrescine 3.3 mM): 47.9
Fig. 2D activity (LOX; 1.23e-6, putrescine 10 mM): 67.1
Fig. 2D activity (LOX; 1.23e-6, putrescine 30 mM): 81.21
Fig. 2D activity (LOX; 1.23e-6, putrescine 90 mM): 86.37
Fig. 2D activity (LOX; 3.7e-6, putrescine 1.1 mM): 11.17
Fig. 2D activity (LOX; 3.7e-6, putrescine 3.3 mM): 19.92
Fig. 2D activity (LOX; 3.7e-6, putrescine 10 mM): 38.7
Fig. 2D activity (LOX; 3.7e-6, putrescine 30 mM): 60.57
Fig. 2D activity (LOX; 3.7e-6, putrescine 90 mM): 76.61
Fig. 2D activity (LOX; 1.11e-5, putrescine 1.1 mM): 3.35
Fig. 2D activity (LOX; 1.11e-5, putrescine 3.3 mM): 6.43
Fig. 2D activity (LOX; 1.11e-5, putrescine 10 mM): 14.18
Fig. 2D activity (LOX; 1.11e-5, putrescine 30 mM): 32.4
Fig. 2D activity (LOX; 1.11e-5, putrescine 90 mM): 57.08
Fig. 2D activity (LOX; 3.33e-5, putrescine 1.1 mM): -0.5
Fig. 2D activity (LOX; 3.33e-5, putrescine 3.3 mM): 1.53
Fig. 2D activity (LOX; 3.33e-5, putrescine 10 mM): 3.65
Fig. 2D activity (LOX; 3.33e-5, putrescine 30 mM): 9.04
Fig. 2D activity (LOX; 3.33e-5, putrescine 90 mM): 24.08
Fig. 2D activity (LOX; 0.0001, putrescine 1.1 mM): -0.9
Fig. 2D activity (LOX; 0.0001, putrescine 3.3 mM): -0.36
Fig. 2D activity (LOX; 0.0001, putrescine 10 mM): 0.174
Fig. 2D activity (LOX; 0.0001, putrescine 30 mM): 1.46
Fig. 2D activity (LOX; 0.0001, putrescine 90 mM): 4.82
fibroblast cell viability ([1]; 0–100 µM, 24, 48 and 72 h): No significant difference in viability; also recorded: no effect
Supp Fig. 1 cell viability MTS reading (quantity not given) ([1]; 1μM, time 0 hrs): 0.5417 and 0.513 and 0.509
Supp Fig. 1 cell viability MTS reading (quantity not given) ([1]; 1μM, time 24 hrs): 0.5067 and 0.503 and 0.5037
Supp Fig. 1 cell viability MTS reading (quantity not given) ([1]; 1μM, time 48 hrs): 0.5417 and 0.513 and 0.509
Supp Fig. 1 cell viability MTS reading (quantity not given) ([1]; 1μM, time 72 hrs): 0.4673 and 0.4607 and 0.4573
Supp Fig. 1 cell viability MTS reading (quantity not given) ([1]; 5μM, time 0 hrs): 0.505 and 0.4817 and 0.4813
Supp Fig. 1 cell viability MTS reading (quantity not given) ([1]; 5μM, time 24 hrs): 0.4947 and 0.4857 and 0.4823
Supp Fig. 1 cell viability MTS reading (quantity not given) ([1]; 5μM, time 48 hrs): 0.505 and 0.4817 and 0.4813
Supp Fig. 1 cell viability MTS reading (quantity not given) ([1]; 5μM, time 72 hrs): 0.461 and 0.4743 and 0.4797
Supp Fig. 1 cell viability MTS reading (quantity not given) ([1]; 10μM, time 0 hrs): 0.5527 and 0.5103 and 0.5143
Supp Fig. 1 cell viability MTS reading (quantity not given) ([1]; 10μM, time 24 hrs): 0.533 and 0.5197 and 0.5183
Supp Fig. 1 cell viability MTS reading (quantity not given) ([1]; 10μM, time 48 hrs): 0.5527 and 0.5103 and 0.5143
Supp Fig. 1 cell viability MTS reading (quantity not given) ([1]; 10μM, time 72 hrs): 0.428 and 0.481 and 0.4927
Supp Fig. 1 cell viability MTS reading (quantity not given) ([1]; 25μM, time 0 hrs): 0.569 and 0.5407 and 0.5403
Supp Fig. 1 cell viability MTS reading (quantity not given) ([1]; 25μM, time 24 hrs): 0.5363 and 0.517 and 0.513
Supp Fig. 1 cell viability MTS reading (quantity not given) ([1]; 25μM, time 48 hrs): 0.569 and 0.5407 and 0.5403
Supp Fig. 1 cell viability MTS reading (quantity not given) ([1]; 25μM, time 72 hrs): 0.45 and 0.5113 and 0.529
Supp Fig. 1 cell viability MTS reading (quantity not given) ([1]; 50μM, time 0 hrs): 0.5427 and 0.5253 and 0.526
Supp Fig. 1 cell viability MTS reading (quantity not given) ([1]; 50μM, time 24 hrs): 0.4977 and 0.5027 and 0.5057
Supp Fig. 1 cell viability MTS reading (quantity not given) ([1]; 50μM, time 48 hrs): 0.5427 and 0.5253 and 0.526
Supp Fig. 1 cell viability MTS reading (quantity not given) ([1]; 50μM, time 72 hrs): 0.5073 and 0.527 and 0.526
Supp Fig. 1 cell viability MTS reading (quantity not given) ([1]; 100μM, time 0 hrs): 0.478 and 0.466 and 0.467
Supp Fig. 1 cell viability MTS reading (quantity not given) ([1]; 100μM, time 24 hrs): 0.468 and 0.457 and 0.456
Supp Fig. 1 cell viability MTS reading (quantity not given) ([1]; 100μM, time 48 hrs): 0.461 and 0.4477 and 0.449
Supp Fig. 1 cell viability MTS reading (quantity not given) ([1]; 100μM, time 72 hrs): 0.4837 and 0.4977 and 0.499
% Inh. (Thyroid Hormone): 0%

NC/C=C(\F)C(F)(F)S(=O)(=O)c1ccccc1 [PXS-6302]
inhibition at 30 µM (Phosphodiesterase PDE4D2): 3%
inhibition at 30 µM [2]: 1%
